Measurements as given in ChEMBL document CHEMBL1144021, “Molecular determinants of the anticonvulsant felbamate binding site in the N-methyl-D-aspartate receptor” (J Med Chem, 2008).
Activity calls are given as the source filed them. The calls are words filed in the database; no cut-off is given here.

Experiments:
[1] = tested on: Glutamate receptor ionotropic, NMDA 2B (Homo sapiens), Q13224 [E236A]; assay: Binding affinity to NR2B receptor ATD E236A mutant
[2] = Ratio of Kapp for wild type NR2B receptor to Kapp for NR2B receptor L643A/K234A mutant
[3] = tested on: Glutamate receptor ionotropic, NMDA 2B (Homo sapiens), Q13224 [I641A]; assay: Inhibition of NR2B receptor M3c I641A mutant expressed in Xenopus oocytes assessed as NMDA current at 0.5 mM relative to control; assay type: cell-based; conditions: Oocyte
[4] = Ratio of Kapp for wild type NR2B receptor to Kapp for NR2B receptor ATD T103A mutant
[5] = tested on: Glutamate receptor ionotropic, NMDA 2B (Homo sapiens), Q13224 [E657A]; assay: Inhibition of NR2B receptor post-M3 E657A mutant expressed in Xenopus oocytes assessed as NMDA current at 0.5 mM relative to control; assay type: cell-based; conditions: Oocyte
[6] = tested on: Glutamate receptor ionotropic, NMDA 2B (Homo sapiens), Q13224 [V640A]; assay: Inhibition of NR2B receptor M3c V640A mutant expressed in Xenopus oocytes assessed as NMDA current at 0.5 mM relative to control; assay type: cell-based; conditions: Oocyte
[7] = Ratio of Kapp for wild type NR2B receptor to Kapp for NR2B receptor ATD T233A mutant
[8] = tested on: Glutamate receptor ionotropic, NMDA 2B (Homo sapiens), Q13224 [T103A]; assay: Inhibition of NR2B receptor ATD T103A mutant expressed in Xenopus oocytes assessed as NMDA current at 0.5 mM relative to control; assay type: cell-based; conditions: Oocyte
Chain of Glutamate receptor ionotropic, NMDA 2B (Homo sapiens), Q13224 [T103A] (Q13224 whole entry T103A): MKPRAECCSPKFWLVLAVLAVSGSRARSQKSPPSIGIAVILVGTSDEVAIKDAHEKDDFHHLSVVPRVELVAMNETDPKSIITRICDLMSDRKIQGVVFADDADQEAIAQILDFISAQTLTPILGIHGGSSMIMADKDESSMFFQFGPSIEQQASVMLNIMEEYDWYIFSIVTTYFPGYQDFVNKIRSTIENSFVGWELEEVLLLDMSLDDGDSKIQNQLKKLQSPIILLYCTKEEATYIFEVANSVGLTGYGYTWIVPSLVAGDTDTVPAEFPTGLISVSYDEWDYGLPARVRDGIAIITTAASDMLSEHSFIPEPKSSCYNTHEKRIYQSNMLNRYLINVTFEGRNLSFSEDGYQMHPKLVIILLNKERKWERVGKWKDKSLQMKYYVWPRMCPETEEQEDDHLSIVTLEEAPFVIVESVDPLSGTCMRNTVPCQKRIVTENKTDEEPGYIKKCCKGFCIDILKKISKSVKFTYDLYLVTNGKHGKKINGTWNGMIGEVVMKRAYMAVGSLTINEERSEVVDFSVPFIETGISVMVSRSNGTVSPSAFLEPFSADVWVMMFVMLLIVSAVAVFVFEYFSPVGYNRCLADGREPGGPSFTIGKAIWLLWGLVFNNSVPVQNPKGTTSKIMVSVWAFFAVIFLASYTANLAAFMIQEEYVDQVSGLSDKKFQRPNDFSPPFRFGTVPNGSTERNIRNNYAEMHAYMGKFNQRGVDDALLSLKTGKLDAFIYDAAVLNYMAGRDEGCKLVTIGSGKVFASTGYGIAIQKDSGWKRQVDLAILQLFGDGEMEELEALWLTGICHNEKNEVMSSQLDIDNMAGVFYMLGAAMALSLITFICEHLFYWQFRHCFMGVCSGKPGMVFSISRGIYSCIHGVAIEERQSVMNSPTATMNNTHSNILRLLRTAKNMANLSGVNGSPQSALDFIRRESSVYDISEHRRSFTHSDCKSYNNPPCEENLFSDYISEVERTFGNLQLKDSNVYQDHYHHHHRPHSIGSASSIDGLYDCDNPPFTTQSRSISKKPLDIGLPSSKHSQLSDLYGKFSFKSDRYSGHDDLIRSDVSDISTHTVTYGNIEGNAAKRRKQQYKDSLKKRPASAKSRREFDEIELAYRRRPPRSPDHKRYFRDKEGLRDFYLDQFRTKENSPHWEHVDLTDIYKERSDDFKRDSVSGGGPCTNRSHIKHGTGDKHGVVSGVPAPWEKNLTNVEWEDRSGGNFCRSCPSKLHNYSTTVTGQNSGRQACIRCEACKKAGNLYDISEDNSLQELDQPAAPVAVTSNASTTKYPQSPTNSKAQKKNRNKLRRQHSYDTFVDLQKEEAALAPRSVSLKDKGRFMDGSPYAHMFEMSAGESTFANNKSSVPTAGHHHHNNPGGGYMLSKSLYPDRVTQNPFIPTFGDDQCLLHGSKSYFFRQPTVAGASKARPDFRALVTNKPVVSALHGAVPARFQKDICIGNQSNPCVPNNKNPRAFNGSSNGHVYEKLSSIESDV

[9] = tested on: Glutamate receptor ionotropic, NMDA 2B (Homo sapiens), Q13224 [D557A]; assay: Inhibition of NR2B receptor Pre-M1 D557A mutant expressed in Xenopus oocytes assessed as NMDA current at 0.5 mM relative to control; assay type: cell-based; conditions: Oocyte
[10] = tested on: Glutamate receptor ionotropic, NMDA 2B (Homo sapiens), Q13224 [E106A]; assay: Inhibition of NR2B receptor ATD E106A mutant expressed in Xenopus oocytes assessed as NMDA current at 0.5 mM relative to control; assay type: cell-based; conditions: Oocyte
[11] = tested on: Glutamate receptor ionotropic, NMDA 2B (Homo sapiens), Q13224 [N649A]; assay: Inhibition of NR2B receptor M3c N649A mutant expressed in Xenopus oocytes assessed as NMDA current at 0.5 mM relative to control; assay type: cell-based; conditions: Oocyte
[12] = tested on: Glutamate receptor ionotropic, NMDA 2B (Homo sapiens), Q13224 [F554A]; assay: Inhibition of NR2B receptor Pre-M1 F554A mutant expressed in Xenopus oocytes assessed as NMDA current at 0.5 mM relative to control; assay type: cell-based; conditions: Oocyte
[13] = tested on: Glutamate receptor ionotropic, NMDA 2B (Homo sapiens), Q13224 [D101A]; assay: Binding affinity to NR2B receptor ATD D101A mutant
[14] = tested on: Glutamate receptor ionotropic, NMDA 2B (Homo sapiens), Q13224 [W559A]; assay: Inhibition of NR2B receptor Pre-M1 W559A mutant expressed in Xenopus oocytes assessed as NMDA current at 0.5 mM relative to control; assay type: cell-based; conditions: Oocyte
[15] = tested on: Glutamate receptor ionotropic, NMDA 2B (Homo sapiens), Q13224 [L650A]; assay: Inhibition of NR2B receptor M3c L650A mutant expressed in Xenopus oocytes assessed as NMDA current at 0.5 mM relative to control; assay type: cell-based; conditions: Oocyte
[16] = tested on: Glutamate receptor ionotropic, NMDA 2B (Homo sapiens), Q13224 [F653A]; assay: Inhibition of NR2B receptor M3c F653A mutant expressed in Xenopus oocytes assessed as NMDA current at 0.5 mM relative to control; assay type: cell-based; conditions: Oocyte
[17] = Binding affinity to NR2B receptor M3c […] mutant
[18] = tested on: Glutamate receptor ionotropic, NMDA 2B (Homo sapiens), Q13224 [Q656A]; assay: Inhibition of NR2B receptor post-M3 Q656A mutant expressed in Xenopus oocytes assessed as NMDA current at 0.5 mM relative to control; assay type: cell-based; conditions: Oocyte
[19] = tested on: Glutamate receptor ionotropic, NMDA 2B (Homo sapiens), Q13224 [S546A]; assay: Inhibition of NR2B receptor Pre-M1 S546A mutant expressed in Xenopus oocytes assessed as NMDA current at 0.5 mM relative to control; assay type: cell-based; conditions: Oocyte
[20] = tested on: Glutamate receptor ionotropic, NMDA 2B (Homo sapiens), Q13224 [T233A]; assay: Inhibition of NR2B receptor ATD T233A mutant expressed in Xenopus oocytes assessed as NMDA current at 0.5 mM relative to control; assay type: cell-based; conditions: Oocyte
[21] = Ratio of Kapp for wild type NR2B receptor to Kapp for NR2B receptor M3c T647A mutant
[22] = tested on: Glutamate receptor ionotropic, NMDA 2B (Homo sapiens), Q13224 [Y646A]; assay: Inhibition of NR2B receptor M3c Y646A mutant expressed in Xenopus oocytes assessed as NMDA current at 0.5 mM relative to control; assay type: cell-based; conditions: Oocyte
[23] = tested on: Glutamate receptor ionotropic, NMDA 2B (Homo sapiens), Q13224 [L643A,T647A]; assay: Binding affinity to NR2B receptor L643A/T647A mutant
[24] = tested on: Glutamate receptor ionotropic, NMDA 2B (Homo sapiens), Q13224 [A648C]; assay: Inhibition of NR2B receptor M3c A648C mutant expressed in Xenopus oocytes assessed as NMDA current at 0.5 mM relative to control; assay type: cell-based; conditions: Oocyte
[25] = tested on: Glutamate receptor ionotropic, NMDA 2B (Homo sapiens), Q13224 [E658A]; assay: Inhibition of NR2B receptor post-M3 E658A mutant expressed in Xenopus oocytes assessed as NMDA current at 0.5 mM relative to control; assay type: cell-based; conditions: Oocyte
Chain of Glutamate receptor ionotropic, NMDA 2B (Homo sapiens), Q13224 [E658A] (Q13224 whole entry E658A): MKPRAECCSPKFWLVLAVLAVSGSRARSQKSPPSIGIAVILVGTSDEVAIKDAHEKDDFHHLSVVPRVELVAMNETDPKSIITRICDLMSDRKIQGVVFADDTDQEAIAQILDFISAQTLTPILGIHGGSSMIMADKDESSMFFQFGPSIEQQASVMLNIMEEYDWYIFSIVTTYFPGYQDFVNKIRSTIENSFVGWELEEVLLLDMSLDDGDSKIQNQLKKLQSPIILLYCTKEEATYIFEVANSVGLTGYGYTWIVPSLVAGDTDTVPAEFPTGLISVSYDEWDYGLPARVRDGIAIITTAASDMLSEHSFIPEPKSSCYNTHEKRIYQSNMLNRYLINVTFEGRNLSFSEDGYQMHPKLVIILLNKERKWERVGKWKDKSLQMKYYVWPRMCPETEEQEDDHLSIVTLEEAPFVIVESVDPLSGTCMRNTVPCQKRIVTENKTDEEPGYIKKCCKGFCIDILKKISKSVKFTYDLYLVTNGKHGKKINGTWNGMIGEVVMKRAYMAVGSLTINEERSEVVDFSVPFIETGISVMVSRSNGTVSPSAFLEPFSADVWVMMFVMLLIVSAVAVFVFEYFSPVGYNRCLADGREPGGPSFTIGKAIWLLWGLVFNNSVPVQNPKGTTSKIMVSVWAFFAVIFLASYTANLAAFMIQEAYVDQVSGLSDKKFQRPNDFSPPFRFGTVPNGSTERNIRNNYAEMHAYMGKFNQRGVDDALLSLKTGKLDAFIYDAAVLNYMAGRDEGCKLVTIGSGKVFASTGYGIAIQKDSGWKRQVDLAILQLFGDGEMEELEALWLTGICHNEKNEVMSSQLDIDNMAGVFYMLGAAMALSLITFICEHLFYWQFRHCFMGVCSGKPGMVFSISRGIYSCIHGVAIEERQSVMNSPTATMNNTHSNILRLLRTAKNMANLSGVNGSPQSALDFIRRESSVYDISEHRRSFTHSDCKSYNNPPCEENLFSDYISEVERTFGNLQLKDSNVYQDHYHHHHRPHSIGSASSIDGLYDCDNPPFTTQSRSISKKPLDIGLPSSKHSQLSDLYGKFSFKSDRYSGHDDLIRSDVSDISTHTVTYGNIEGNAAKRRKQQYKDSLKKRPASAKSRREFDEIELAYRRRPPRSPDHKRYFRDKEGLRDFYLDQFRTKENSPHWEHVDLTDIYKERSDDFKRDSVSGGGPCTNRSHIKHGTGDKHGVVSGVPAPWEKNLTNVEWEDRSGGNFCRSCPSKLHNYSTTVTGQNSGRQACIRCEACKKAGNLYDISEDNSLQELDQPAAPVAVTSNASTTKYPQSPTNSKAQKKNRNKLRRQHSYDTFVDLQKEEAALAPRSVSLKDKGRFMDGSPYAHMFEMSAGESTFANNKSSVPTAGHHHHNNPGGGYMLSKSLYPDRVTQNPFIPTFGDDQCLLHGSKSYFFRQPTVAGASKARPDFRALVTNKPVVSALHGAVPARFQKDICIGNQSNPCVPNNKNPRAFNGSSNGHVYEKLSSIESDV

[26] = tested on: Glutamate receptor ionotropic, NMDA 2B (Homo sapiens), Q13224 [I655A]; assay: Inhibition of NR2B receptor post-M3 I655A mutant expressed in Xenopus oocytes assessed as NMDA current at 0.5 mM relative to control; assay type: cell-based; conditions: Oocyte
Chain of Glutamate receptor ionotropic, NMDA 2B (Homo sapiens), Q13224 [I655A] (Q13224 whole entry I655A): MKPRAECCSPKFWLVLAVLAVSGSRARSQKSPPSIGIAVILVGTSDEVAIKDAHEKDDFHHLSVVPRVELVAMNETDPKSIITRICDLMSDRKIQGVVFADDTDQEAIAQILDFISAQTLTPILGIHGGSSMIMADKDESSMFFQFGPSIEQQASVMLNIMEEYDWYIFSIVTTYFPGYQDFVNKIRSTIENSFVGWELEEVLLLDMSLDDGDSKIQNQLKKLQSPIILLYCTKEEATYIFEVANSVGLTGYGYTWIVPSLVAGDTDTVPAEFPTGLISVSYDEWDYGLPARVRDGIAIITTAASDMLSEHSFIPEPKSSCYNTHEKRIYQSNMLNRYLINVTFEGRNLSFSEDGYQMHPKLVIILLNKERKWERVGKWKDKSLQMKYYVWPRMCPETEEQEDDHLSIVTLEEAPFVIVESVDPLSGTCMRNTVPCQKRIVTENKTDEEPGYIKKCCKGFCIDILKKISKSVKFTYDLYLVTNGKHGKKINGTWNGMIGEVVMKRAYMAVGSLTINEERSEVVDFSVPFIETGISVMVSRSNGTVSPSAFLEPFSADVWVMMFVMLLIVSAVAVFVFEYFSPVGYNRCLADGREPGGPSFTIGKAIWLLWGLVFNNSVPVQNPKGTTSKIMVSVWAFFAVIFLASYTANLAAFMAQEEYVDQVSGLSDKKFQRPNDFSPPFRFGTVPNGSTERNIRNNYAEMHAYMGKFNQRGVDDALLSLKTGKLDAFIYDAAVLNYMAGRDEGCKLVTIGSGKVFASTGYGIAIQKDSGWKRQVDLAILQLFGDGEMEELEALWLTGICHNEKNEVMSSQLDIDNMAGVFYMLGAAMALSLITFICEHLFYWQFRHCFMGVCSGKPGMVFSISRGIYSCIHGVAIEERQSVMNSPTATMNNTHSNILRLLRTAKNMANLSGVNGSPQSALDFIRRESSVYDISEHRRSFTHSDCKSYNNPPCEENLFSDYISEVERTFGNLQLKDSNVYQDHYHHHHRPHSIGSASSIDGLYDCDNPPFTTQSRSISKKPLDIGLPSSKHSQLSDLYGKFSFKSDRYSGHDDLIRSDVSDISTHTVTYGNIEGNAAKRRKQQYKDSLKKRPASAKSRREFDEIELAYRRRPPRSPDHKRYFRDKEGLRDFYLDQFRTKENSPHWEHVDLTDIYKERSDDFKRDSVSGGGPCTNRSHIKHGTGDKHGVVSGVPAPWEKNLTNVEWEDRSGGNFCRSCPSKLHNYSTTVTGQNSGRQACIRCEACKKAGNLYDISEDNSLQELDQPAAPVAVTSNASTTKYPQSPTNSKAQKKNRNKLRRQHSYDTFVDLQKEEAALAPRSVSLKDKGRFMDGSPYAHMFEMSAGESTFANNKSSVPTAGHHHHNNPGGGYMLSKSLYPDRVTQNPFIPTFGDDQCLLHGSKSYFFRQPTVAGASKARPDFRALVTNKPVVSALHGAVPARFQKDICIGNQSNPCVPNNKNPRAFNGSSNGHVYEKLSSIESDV

[27] = Ratio of Kapp for wild type NR2B receptor to Kapp for NR2B receptor ATD K234A mutant
[28] = tested on: Glutamate receptor ionotropic, NMDA 2B (Homo sapiens), Q13224 [S645A,K234A]; assay: Binding affinity to NR2B receptor S645A/K234A mutant
[29] = tested on: Glutamate receptor ionotropic, NMDA 2B (Homo sapiens), Q13224 [A651T]; assay: Inhibition of NR2B receptor M3c A651T mutant expressed in Xenopus oocytes assessed as NMDA current at 0.5 mM relative to control; assay type: cell-based; conditions: Oocyte
[30] = Binding affinity to NR2B receptor […]/T103A mutant
[31] = Ratio of Kapp for wild type NR2B receptor to Kapp for NR2B receptor T647A/K234A mutant
[32] = tested on: Glutamate receptor ionotropic, NMDA 2B (Homo sapiens), Q13224 [L643A]; assay: Inhibition of NR2B receptor M3c L643A mutant expressed in Xenopus oocytes assessed as NMDA current at 0.5 mM relative to control; assay type: cell-based; conditions: Oocyte
[33] = Ratio of Kapp for wild type NR2B receptor to Kapp for NR2B receptor ATD D101A mutant
[34] = Ratio of Kapp for wild type NR2B receptor to Kapp for NR2B receptor T647A/T103A mutant

Q: For `NC(=O)OCC(COC(N)=O)c1ccccc1`, which Kapp [1] is on record?
A: The Kapp was 2.18 mM.

Q: And the Ratio Ki(app) [2]?
A: Its Ratio Ki(app) is 7.3.

Q: What about the inhibition [3] of the same compound?
A: Its inhibition is 84%.

Q: And the Ratio Ki(app) [4]?
A: The Ratio Ki(app) was 4.8.

Q: And the inhibition [5]?
A: Its inhibition is 61%.

Q: And the inhibition [6]?
A: Its inhibition is 71%.

Q: And the Ratio Ki(app) [7]?
A: Its Ratio Ki(app) is 2.9.

Q: What about the inhibition [8] of the same compound?
A: The inhibition was 85%.

Q: And the inhibition [9]?
A: The inhibition was 75%.

Q: What about the inhibition [10] of the same compound?
A: Its inhibition is 74%.

Q: And the Activity [11]?
A: Its Activity is “inactive”.

Q: What about the Activity [12] of the same compound?
A: Its Activity is “inactive”.

Q: What about the Kapp [13] of the same compound?
A: Its Kapp is 2.76 mM.

Q: What about the Activity [14] of the same compound?
A: Its Activity is “inactive”.

Q: And the inhibition [15]?
A: The inhibition was 76%.

Q: And the Activity [16]?
A: The Activity was “inactive”.

Q: And the Kapp [17]?
A: Its Kapp is 5.64 mM.

Q: And the inhibition [18]?
A: Its inhibition is 70%.

Q: And the inhibition [19]?
A: Its inhibition is 64%.

Q: And the inhibition [20]?
A: Its inhibition is 84%.

Q: And the Ratio Ki(app) [21]?
A: The Ratio Ki(app) was 7.5.

Q: And the inhibition [22]?
A: The inhibition was 74%.

Q: And the Kapp [23]?
A: Its Kapp is 34.5 mM.

Q: And the inhibition [24]?
A: The inhibition was 73%.

Q: What about the inhibition [25] of the same compound?
A: Its inhibition is 65%.

Q: What about the inhibition [26] of the same compound?
A: Its inhibition is 76%.

Q: And the Ratio Ki(app) [27]?
A: Its Ratio Ki(app) is 4.9.

Q: And the Kapp [28]?
A: Its Kapp is 7.1 mM.

Q: And the inhibition [29]?
A: The inhibition was 72%.

Q: What about the Kapp [30] of the same compound?
A: Its Kapp is 6.73 mM.

Q: And the Ratio Ki(app) [31]?
A: The Ratio Ki(app) was 8.

Q: And the inhibition [32]?
A: Its inhibition is 90%.

Q: What about the Ratio Ki(app) [33] of the same compound?
A: The Ratio Ki(app) was 3.2.

Q: And the Ratio Ki(app) [34]?
A: Its Ratio Ki(app) is 7.7.
